Several values for one entry are separate records, joined by “and”; a condition that tells them apart may be missing. Equal entries are not always repeated. Inconclusive results and toxic doses are left out.
Tested on: P388 leukemia ip, CD2F1 mice, survival T/C
Assay: NCI In Vivo Anticancer Drug Screen. Data for tumor model P388 Leukemia (intraperitoneal) in CD2F1 (CDF1) mice
Details: endpoint: median survival time, higher = longer survival
Outline: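 Mice carrying the transplanted tumor received test compound or vehicle. Survival was recorded in each group, and the value is the treated-group measurement divided by that of the vehicle-treated control group.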

[1] = dose: 50.0 mg/kg/injection, schedule: Q01DX005 (ip), vehicle: Klucel (hydroxypropylcellulose) (HPC)
[2] = dose: 100.0 mg/kg/injection, schedule: Q01DX005 (ip), vehicle: Klucel (hydroxypropylcellulose) (HPC)
[3] = dose: 25.0 mg/kg/injection, schedule: Q01DX009 (ip), vehicle: saline with Tween-80
[4] = dose: 50.0 mg/kg/injection, schedule: Q01DX009 (ip), vehicle: saline with Tween-80
[5] = dose: 100.0 mg/kg/injection, schedule: Q01DX009 (ip), vehicle: saline with Tween-80
[6] = dose: 200.0 mg/kg/injection, schedule: Q01DX009 (ip), vehicle: saline with Tween-80
[7] = dose: 100.0 mg/kg/injection, schedule: Q01DX001 (ip), vehicle: saline with Tween-80
[8] = dose: 200.0 mg/kg/injection, schedule: Q01DX001 (ip), vehicle: saline with Tween-80
[9] = dose: 400.0 mg/kg/injection, schedule: Q01DX001 (ip), vehicle: saline with Tween-80
[10] = dose: 12.5 mg/kg/injection, schedule: Q01DX005 (ip), vehicle: Klucel (hydroxypropylcellulose) (HPC)
[11] = dose: 25.0 mg/kg/injection, schedule: Q01DX005 (ip), vehicle: Klucel (hydroxypropylcellulose) (HPC)
[12] = dose: 50.0 mg/kg/injection, schedule: Q01DX009 (ip), vehicle: Klucel (hydroxypropylcellulose) (HPC)
[13] = dose: 100.0 mg/kg/injection, schedule: Q04DX003 (ip), vehicle: saline with Tween-80
[14] = dose: 200.0 mg/kg/injection, schedule: Q04DX003 (ip), vehicle: saline with Tween-80
[15] = dose: 400.0 mg/kg/injection, schedule: Q04DX003 (ip), vehicle: saline with Tween-80
[16] = dose: 6.25 mg/kg/injection, schedule: Q01DX005 (ip), vehicle: Klucel (hydroxypropylcellulose) (HPC)
[17] = dose: 60.0 mg/kg/injection, schedule: Q01DX005 (ip), vehicle: saline with Tween-80
[18] = dose: 120.0 mg/kg/injection, schedule: Q01DX005 (ip), vehicle: saline with Tween-80
[19] = dose: 240.0 mg/kg/injection, schedule: Q01DX005 (ip), vehicle: saline with Tween-80
[20] = dose: 200.0 mg/kg/injection, schedule: Q01DX005 (ip), vehicle: Klucel (hydroxypropylcellulose) (HPC)

## O=C(CCc1ccc(O)c(O)c1)c1ccc(O)c(O)c1O
dose: 4.0 mg/kg/injection, schedule: Q01DX009 (ip), vehicle: saline
  T/C: 111 % of control
dose: 8.0 mg/kg/injection, schedule: Q01DX009 (ip), vehicle: saline
  T/C: 104 % of control
dose: 16.0 mg/kg/injection, schedule: Q01DX009 (ip), vehicle: saline
  T/C: 102 % of control
dose: 32.0 mg/kg/injection, schedule: Q01DX009 (ip), vehicle: saline
  T/C: 114 % of control

## CCN=C1SC2C(=O)N(C)C(S1)C(=O)N2C
dose: 6.25 mg/kg/injection, schedule: Q04DX002 (ip), vehicle: saline
  T/C: 100 % of control
dose: 12.5 mg/kg/injection, schedule: Q04DX002 (ip), vehicle: saline
  T/C: 103 % of control
dose: 25.0 mg/kg/injection, schedule: Q04DX002 (ip), vehicle: saline
  T/C: 105 % of control

## C=C(Br)C(=NC(C)(C)C)Nc1cccc(Cl)c1
[1]
  T/C: 102 % of control
[2]
  T/C: 107 % of control

## Nc1ncnc2c1ncn2C1OC(CO)C2OC(=S)OC21 (stereo unspecified)
[3]
  T/C: 96 % of control
[4]
  T/C: 101 % of control
[5]
  T/C: 100 % of control
[6]
  T/C: 100 % of control

## CC(=O)Oc1ccc2c(c1)c1c(OC(C)=O)c(N(C)C(C)=O)cc(OC(C)=O)c1n2C
dose: 50.0 mg/kg/injection, schedule: Q01DX009 (ip), vehicle: saline
  T/C: 100 % of control
dose: 100.0 mg/kg/injection, schedule: Q01DX009 (ip), vehicle: saline
  T/C: 86 % of control
dose: 200.0 mg/kg/injection, schedule: Q01DX009 (ip), vehicle: saline
  T/C: 100 % of control

## O=C(O)CSCc1nc2ccccc2[nH]1
[7]
  T/C: 95 % of control
[8]
  T/C: 90 % of control
[9]
  T/C: 100 % of control

## NC(CCCCNC(=S)S)C(=O)O.[Na+].[Zn+2] (stereo unspecified)
[10]
  T/C: 102 % of control
[11]
  T/C: 102 % of control
[1]
  T/C: 102 % of control and 107 % of control and 114 % of control
[2]
  T/C: 109 % of control and 120 % of control (2×)

## O=S(=O)(CCCl)c1ccc2ccccc2c1
dose: 12.5 mg/kg/injection, schedule: Q01DX009 (ip), vehicle: Klucel (hydroxypropylcellulose) (HPC)
  T/C: 118 % of control and 90 % of control
dose: 25.0 mg/kg/injection, schedule: Q01DX009 (ip), vehicle: Klucel (hydroxypropylcellulose) (HPC)
  T/C: 114 % of control
[12]
  T/C: 106 % of control and 117 % of control

## CCCOn1nnc2ccccc21
[13]
  T/C: 99 % of control
[14]
  T/C: 102 % of control
[15]
  T/C: 107 % of control

## COC(=O)/C=C1\C(=O)OCC1(C)C
dose: 100.0 mg/kg/injection, schedule: Q04DX003 (ip), vehicle: saline
  T/C: 100 % of control
dose: 200.0 mg/kg/injection, schedule: Q04DX003 (ip), vehicle: saline
  T/C: 104 % of control
dose: 400.0 mg/kg/injection, schedule: Q04DX003 (ip), vehicle: saline
  T/C: 103 % of control

## CC1C=CC(C)N(c2nnnn2C)N1c1nnnn1C (stereo unspecified)
[13]
  T/C: 116 % of control
[14]
  T/C: 106 % of control
[15]
  T/C: 100 % of control

## CNCC1c2ccccc2CSc2c(OC)cccc21 (stereo unspecified)
[16]
  T/C: 101 % of control
[10]
  T/C: 98 % of control
[11]
  T/C: 98 % of control

## O=C(O)c1cc(F)cc(C(=O)O)c1
dose: 50.0 mg/kg/injection, schedule: Q04DX003 (ip), vehicle: suspension in saline
  T/C: 109 % of control
dose: 100.0 mg/kg/injection, schedule: Q04DX003 (ip), vehicle: suspension in saline
  T/C: 104 % of control
dose: 200.0 mg/kg/injection, schedule: Q04DX003 (ip), vehicle: suspension in saline
  T/C: 110 % of control

## Cc1cccc(Nc2c3c(nc4ccccc24)CCCCC3)c1
[17]
  T/C: 98 % of control
[18]
  T/C: 90 % of control
[19]
  T/C: 91 % of control

## O=C(NC(CO)C(=O)O)c1ccccc1 (stereo unspecified)
dose: 50.0 mg/kg/injection, schedule: Q01DX005 (ip), vehicle: saline
  T/C: 100 % of control
dose: 100.0 mg/kg/injection, schedule: Q01DX005 (ip), vehicle: saline
  T/C: 100 % of control
dose: 200.0 mg/kg/injection, schedule: Q01DX005 (ip), vehicle: saline
  T/C: 100 % of control

## O=C1Nc2ccccc2S/C1=C/c1ccccc1
dose: 50.0 mg/kg/injection, schedule: Q01DX009 (ip), vehicle: gum acacia
  T/C: 109 % of control
dose: 100.0 mg/kg/injection, schedule: Q01DX009 (ip), vehicle: gum acacia
  T/C: 113 % of control
dose: 200.0 mg/kg/injection, schedule: Q01DX009 (ip), vehicle: gum acacia
  T/C: 97 % of control

## CC(/C=C/c1ccc(Cl)cc1)=N\NC(N)=S
dose: 7.5 mg/kg/injection, schedule: Q01DX005 (ip), vehicle: saline with Tween-80
  T/C: 100 % of control
dose: 15.0 mg/kg/injection, schedule: Q01DX005 (ip), vehicle: saline with Tween-80
  T/C: 120 % of control
dose: 30.0 mg/kg/injection, schedule: Q01DX005 (ip), vehicle: saline with Tween-80
  T/C: 124 % of control

## C=C(C)/C=N/O
[1]
  T/C: 113 % of control
[2]
  T/C: 104 % of control
[20]
  T/C: 106 % of control

## Cc1cc(=O)oc2ccc3c(=O)ccoc3c12
[17]
  T/C: 95 % of control
[18]
  T/C: 96 % of control
[19]
  T/C: 97 % of control

## CC(C)NCc1ccccc1Sc1ccccc1
dose: 25.0 mg/kg/injection, schedule: Q01DX001 (ip), vehicle: saline with Tween-80
  T/C: 96 % of control
dose: 50.0 mg/kg/injection, schedule: Q01DX001 (ip), vehicle: saline with Tween-80
  T/C: 104 % of control
[7]
  T/C: 95 % of control

## CN(C)CCSc1nnc(N)s1
dose: 25.0 mg/kg/injection, schedule: Q01DX001 (ip), vehicle: saline
  T/C: 108 % of control
dose: 50.0 mg/kg/injection, schedule: Q01DX001 (ip), vehicle: saline
  T/C: 109 % of control
dose: 100.0 mg/kg/injection, schedule: Q01DX001 (ip), vehicle: saline
  T/C: 105 % of control and 109 % of control
dose: 200.0 mg/kg/injection, schedule: Q01DX001 (ip), vehicle: saline
  T/C: 94 % of control

## Cn1cnc2c1c(=O)n(C(C(N)=O)C(N)=O)c(=O)n2C
[8]
  T/C: 104 % of control
[9]
  T/C: 101 % of control

## N#Cc1nccnc1C#N
dose: 12.5 mg/kg/injection, schedule: Q01DX009 (ip), vehicle: saline with Tween-80
  T/C: 86 % of control
[3]
  T/C: 105 % of control
[12]
  T/C: 102 % of control
[4]
  T/C: 101 % of control

## CC(C)CCC1(CCCl)C(=O)NC(=O)NC1=O
[1]
  T/C: 102 % of control
[2]
  T/C: 106 % of control

## CCCCc1ccc2nccc(N/N=C/c3ccc(OC)c4ccccc34)c2c1
dose: 3.12 mg/kg/injection, schedule: Q01DX005 (ip), vehicle: Klucel (hydroxypropylcellulose) (HPC)
  T/C: 100 % of control
[16]
  T/C: 100 % of control
[10]
  T/C: 93 % of control and 94 % of control
[1]
  T/C: 87 % of control

## NC(C(=O)O)c1ccc(CO)cc1 (stereo unspecified)
[3]
  T/C: 100 % of control
dose: 50.0 mg/kg/injection, schedule: Q01DX005 (ip), vehicle: water
  T/C: 86 % of control
[4]
  T/C: 86 % of control
dose: 100.0 mg/kg/injection, schedule: Q01DX005 (ip), vehicle: water
  T/C: 107 % of control
[5]
  T/C: 106 % of control
dose: 200.0 mg/kg/injection, schedule: Q01DX005 (ip), vehicle: water
  T/C: 97 % of control

## CC(C)=C1NC(=O)NC1=O
[1]
  T/C: 101 % of control
[2]
  T/C: 101 % of control
[20]
  T/C: 102 % of control

## NC1=C(O)C(=O)C(c2ccc3c(c2)OCO3)O1 (stereo unspecified)
dose: 60.0 mg/kg/injection, schedule: Q01DX005 (ip), vehicle: Klucel (hydroxypropylcellulose) (HPC)
  T/C: 92 % of control
dose: 120.0 mg/kg/injection, schedule: Q01DX005 (ip), vehicle: Klucel (hydroxypropylcellulose) (HPC)
  T/C: 95 % of control
dose: 240.0 mg/kg/injection, schedule: Q01DX005 (ip), vehicle: Klucel (hydroxypropylcellulose) (HPC)
  T/C: 91 % of control

## Nc1nc2nc(CBr)c(CBr)nc2c(=O)[nH]1
[3]
  T/C: 115 % of control
[4]
  T/C: 118 % of control
[5]
  T/C: 122 % of control
[6]
  T/C: 100 % of control

## CC1(C)CC(OP(=S)(N2CC2)N2CC2)CC(C)(C)N1O
dose: 100.0 mg/kg/injection, schedule: Q01DX001 (ip), vehicle: Klucel (hydroxypropylcellulose) (HPC)
  T/C: 160 % of control
dose: 400.0 mg/kg/injection, schedule: Q01DX001 (ip), vehicle: Klucel (hydroxypropylcellulose) (HPC)
  T/C: 187 % of control

Reference: PubChem BioAssay AID330 (DTP/NCI, 2004)
